The text below walks through data of US8816089B2, “Methods for controlling SR protein phosphorylation, and antiviral agents whose active ingredients comprise agents that control SR protein activity” (priority 2003, dated 2014).

The term IC50 denotes the concentration that gives 50% inhibition.

Peptide text beside a SMILES is read from it. * marks the point of attachment. Cbz = O=C(OCc1ccccc1)*

One data set relates to PKA. The settings on record: final concentration of 10 μM.
Data set [1] has as its system Chinese hamster CHL cells. The data set is described as follows: Chromosomal screening test for mutagenicity in mammalian cells.
The subject of another data set is sindbis virus. It is filed as cell-based.
Another data set relates to SARS virus (FFM-1). It counts as cell-based.
The subject of the next data set is Slc:SD rats. The data set is described as follows: Single-dose oral administration toxicity test. Here is the method: The toxicity of SRPIN-1 was tested by single-dose oral administration to rats. SRPIN-1 was orally administered at a dose of 125, 250, 500, 1000, or 2000 mg/kg (in a volume of 10 ml per kg) to Slc:SD rats (five weeks old; Japan SLC, Inc.) whose weight gain and general conditions were normal during the acclimatization period. Each group included two males and two females. The animals were fasted from the evening of the day before administration until about four hours after administration. […] Then, SRPIN-1 was likewise orally administered at a dose of 2000 mg/kg to five male and five female Slc:SD rats (five weeks old).

A further data set addresses T1, SRPK1 (Homo sapiens, UniProt Q96SB4).
T1 construct: made in house; host or cells: E. coli
The data set is described as follows: SRPK1 phosphorylation activity assay with RS peptide and [γ-32P]ATP. It is filed as biochemical.

For another data set, the target named is PRP4 (Homo sapiens, UniProt Q13523). Briefly: Kinase phosphorylation assay, same technique as for SRPK1. It counts as biochemical. Conditions: final concentration of 10 μM.
The next data set addresses SRPK2 (Homo sapiens, UniProt P78362). The description is as above. It counts as biochemical. The settings on record: final concentration of 10 μM.
A further data set has as its system SRp75 protein. The data set is described as follows: In vivo inhibition of SR protein phosphorylation and induction of SR protein degradation, Western blot of HA-SRp75. It counts as cell-based, human. Conditions: Flp-In-293 cells, SRPIN-1 10, 20, or 50 μM with MG132 10 μM, 15 hours. Here is the method:
FIG. 4C: Evaluation of in-vivo inhibition of SR protein phosphorylation using SRPIN-1, and evaluation of the induction of the accompanying SR protein degradation. HA-SRp75 plasmid was introduced into Flp-In293 cells. After 36 hours, MG132 (final concentration: 10 μM) and SRPIN-1 (10, 20, or 50 μM) were added to the cells. The cells were incubated for 15 hours and then lysed. After SDS-PAGE, the samples were analyzed by Western blotting using anti-HA antibody. Western analysis was also carried out using an antibody against beta actin as a control protein amount.
HA-SRp75 plasmid (1.0 μg) was introduced into Flp-In-293 cells. After 36 hours, MG132 (final concentration: 10 μM) and SRPIN-1 (10, 20, or 50 μM) were added, and the cells were incubated for 15 hours. Then, the cells were lysed with SDS-PAGE sample buffer. The lysate was used as a protein sample. The sample was fractionated by SDS-PAGE and analyzed by Western blotting using the anti-HA antibody. In addition, as a control for protein amount, Western analysis was carried out using anti-beta actin antibody.
(A western blot detects proteins with antibodies after separation by electrophoresis.)

The subject of a further data set is HIV. The data set is described as follows: HIV infection experiment in MT-4 cells, HIVp24 by Lumipulse ELISA. Conditions: supernatant after 48 hours. (In general: An ELISA detects its analyte on a solid surface through an enzyme-linked reagent.)
Another data set deals with Cytomegalovirus. Conditions: HFL1 cells.
For another data set, the system named is PKC. The data set is described as follows: Kinase phosphorylation assay, same technique as for SRPK1. It counts as biochemical. Conditions: final concentration of 10 μM.
The test system of another data set is SRp75, SRp55, and SRp40. The data set is described as follows: Degradation of HA-tagged SR proteins in Flp-In-293 cells, Western blot. It counts as cell-based, human. Conditions: 10 μM, ten hours. Here is the method:
FIG. 1B: Degradation of SR protein. Plasmids for the SRp75, SRp55, and SRp40 genes were fused with HA tag and introduced into Flp-In-293 cells. MG132 (474790; purchased from CALBIOCHEM) was added to the cells at a final concentration of 10 μM. The cells were lysed and heat-denatured. The resulting protein sample was separated by SDS-PAGE, followed by Western analysis using a rabbit anti-HA antibody as the primary antibody and a donkey anti-rabbit IgG antibody as the secondary antibody.
Using Genejuice, 1 μg each of the plasmids for the SRp75, SRp55, and SRp40 genes fused with HA tag (HA-SRp75, HA-SRp55, and HA-SRp40; gifts from Dr. Woan-Yuh TARN), were introduced into Flp-In-293 cells derived from human fetal kidney. After 36 hours, MG132 (474790; purchased from Calbiochem), a ubiquitin proteasome inhibitor, was added at a final concentration of 10 μM. After ten hours, the cells were lysed with SDS-PAGE sample buffer and heat-denatured. The resulting lysate was used as a protein sample. Using the same procedures as described above, the sample was fractionated by SDS-PAGE, and analyzed by Western blotting using a rabbit anti-HA antibody (H1803; purchased from Santa Cruz) as a primary antibody and a donkey anti-rabbit IgG antibody (NA9340; purchased from Amersham) as a secondary antibody.

Sequence of SRPK2 (P78362 whole entry, species assumed): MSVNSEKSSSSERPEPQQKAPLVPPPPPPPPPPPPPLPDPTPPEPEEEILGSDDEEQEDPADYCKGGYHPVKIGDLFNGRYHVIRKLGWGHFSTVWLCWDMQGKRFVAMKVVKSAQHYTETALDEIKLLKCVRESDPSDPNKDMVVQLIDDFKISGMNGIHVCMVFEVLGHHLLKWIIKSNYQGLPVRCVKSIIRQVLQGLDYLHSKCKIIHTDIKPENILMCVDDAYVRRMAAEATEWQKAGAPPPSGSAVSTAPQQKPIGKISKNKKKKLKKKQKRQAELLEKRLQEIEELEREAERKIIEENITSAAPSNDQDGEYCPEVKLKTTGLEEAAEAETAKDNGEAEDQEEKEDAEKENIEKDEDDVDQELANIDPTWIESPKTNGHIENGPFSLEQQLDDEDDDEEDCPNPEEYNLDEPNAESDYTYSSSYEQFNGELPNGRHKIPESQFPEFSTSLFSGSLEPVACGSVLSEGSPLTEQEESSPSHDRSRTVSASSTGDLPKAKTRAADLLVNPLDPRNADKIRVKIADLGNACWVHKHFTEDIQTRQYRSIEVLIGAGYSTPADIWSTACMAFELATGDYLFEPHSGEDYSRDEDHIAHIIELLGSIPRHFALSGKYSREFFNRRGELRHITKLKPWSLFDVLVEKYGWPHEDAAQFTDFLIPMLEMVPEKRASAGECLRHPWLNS
Sequence of PRP4 (Q13523 whole entry): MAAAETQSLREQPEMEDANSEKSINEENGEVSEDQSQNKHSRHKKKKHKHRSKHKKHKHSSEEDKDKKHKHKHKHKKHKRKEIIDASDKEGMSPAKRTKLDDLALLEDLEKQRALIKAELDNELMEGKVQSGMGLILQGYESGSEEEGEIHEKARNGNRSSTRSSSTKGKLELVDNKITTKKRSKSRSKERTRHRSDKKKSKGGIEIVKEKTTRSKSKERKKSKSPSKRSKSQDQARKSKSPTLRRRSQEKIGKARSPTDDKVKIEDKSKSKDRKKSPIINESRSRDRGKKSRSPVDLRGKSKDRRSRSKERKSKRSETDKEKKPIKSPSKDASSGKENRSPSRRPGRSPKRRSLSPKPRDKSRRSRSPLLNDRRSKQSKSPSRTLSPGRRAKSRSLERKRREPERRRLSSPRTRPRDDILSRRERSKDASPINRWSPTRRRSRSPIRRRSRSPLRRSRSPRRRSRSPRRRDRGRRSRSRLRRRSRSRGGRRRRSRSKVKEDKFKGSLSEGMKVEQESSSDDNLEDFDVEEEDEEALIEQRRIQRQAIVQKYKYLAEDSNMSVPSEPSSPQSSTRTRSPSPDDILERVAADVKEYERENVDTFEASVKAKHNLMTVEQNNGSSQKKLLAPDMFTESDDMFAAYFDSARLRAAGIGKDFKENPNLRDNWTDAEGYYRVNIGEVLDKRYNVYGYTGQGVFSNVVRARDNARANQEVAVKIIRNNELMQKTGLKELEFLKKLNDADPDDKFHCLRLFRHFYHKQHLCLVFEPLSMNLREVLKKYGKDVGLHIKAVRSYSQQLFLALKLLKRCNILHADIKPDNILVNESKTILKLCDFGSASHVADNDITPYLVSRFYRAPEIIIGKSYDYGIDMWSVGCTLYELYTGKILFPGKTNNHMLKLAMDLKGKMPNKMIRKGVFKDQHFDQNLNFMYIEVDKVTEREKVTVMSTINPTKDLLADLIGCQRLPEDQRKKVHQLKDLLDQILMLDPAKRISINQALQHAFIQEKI
T1 sequence (Q96SB4 whole entry, species assumed): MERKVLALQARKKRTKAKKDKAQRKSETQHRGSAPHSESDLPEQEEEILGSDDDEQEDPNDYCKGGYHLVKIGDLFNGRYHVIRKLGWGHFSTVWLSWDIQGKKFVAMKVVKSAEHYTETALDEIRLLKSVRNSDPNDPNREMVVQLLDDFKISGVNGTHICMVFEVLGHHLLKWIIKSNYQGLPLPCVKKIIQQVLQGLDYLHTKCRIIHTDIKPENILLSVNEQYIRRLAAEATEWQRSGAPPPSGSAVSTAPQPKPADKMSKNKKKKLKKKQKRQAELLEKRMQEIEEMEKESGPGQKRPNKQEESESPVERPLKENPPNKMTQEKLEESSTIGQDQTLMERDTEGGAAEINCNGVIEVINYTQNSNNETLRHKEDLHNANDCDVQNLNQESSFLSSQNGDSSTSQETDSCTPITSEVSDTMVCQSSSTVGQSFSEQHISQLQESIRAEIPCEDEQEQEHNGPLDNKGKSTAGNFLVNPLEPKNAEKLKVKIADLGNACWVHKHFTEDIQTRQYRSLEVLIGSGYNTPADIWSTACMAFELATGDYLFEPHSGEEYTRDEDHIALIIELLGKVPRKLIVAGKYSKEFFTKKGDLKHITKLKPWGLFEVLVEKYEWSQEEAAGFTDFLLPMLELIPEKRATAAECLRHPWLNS

As to `O=C(Nc1cc(C(F)(F)F)ccc1N1CCCCC1)c1ccncc1` [Compound No. 340, N-[2-(1-piperidinyl)-5-(trifluoromethyl)phenyl]isonicotinamide], in the data set on PKA, the “inhibitory effect on PKA” value is given as “did not exhibit an inhibitory effect”. Also, the “increase in the number of cells with structural and numerical chromosomal abnormalities” value in data set [1] (continuous treatment method (24 hours), 5, 1.58, or 0.5 mg/ml) was “negative (When the frequency of cell abnormality was less than 5%, the testing substance was judged to be negative)”; in [1] (short treatment method (+S9 mix, six hours), 5, 1.58, or 0.5 mg/ml), “negative (When the frequency of cell abnormality was less than 5%, the testing substance was judged to be negative)”. In the data set on sindbis virus, the “cell damage caused by sindbis virus propagation” value was “dramatically suppressed”. For the same compound, the “propagation of sindbis virus (plaque assay)” value with sindbis virus is recorded as “significantly suppressed the propagation of sindbis virus in a concentration-dependent manner”. The “SARS virus propagation, concentration dependence (plaque assay)” value in the data set on SARS virus (FFM-1) is “suppress SARS virus propagation in a concentration-dependent manner”. In addition, the “SARS virus propagation (plaque assay)” value in the data set on SARS virus (FFM-1) (Vero cells, 40 μM, 48 hours) is reported as “significantly suppressed SARS virus propagation”. In addition, the “viral propagation-suppressing effect compared with Compound No. 349” value with SARS virus (FFM-1) (Vero cells, SARS virus) is recorded as “stronger than that of the analog compound (Compound No. 349)”. For the same compound, the death result in the data set on Slc:SD rats (oral 2000 mg/kg, observed for 14 days) was “none of the male and female rats died”; in the data set on Slc:SD rats (oral 125, 250, 500, 1000, or 2000 mg/kg, two days after administration), “None of the male and female rats died”. In the data set with Slc:SD rats (rat, in vivo, po, 2000 mg/kg), the general condition result is reported as “no abnormalities were detectable in their general condition”. The compound further showed a half-inhibitory concentration (IC50) on SRPK1 of around 0.4 µM. The “inhibitory effect on PRP4” value against PRP4 is “did not exhibit an inhibitory effect”. For the same compound, at SRPK2, the “inhibitory effect on SRPK2” value is listed as “did not exhibit an inhibitory effect”. Further, the “HA antibody signal (HA-SRp75)” value in the data set with SRp75 protein is “weakened depending on the concentration of SRPIN-1”. In addition, in the data set on HIV (MT-4 cells, 5, 10, or 20 μM), the “effect in suppressing HIV replication (HIVp24)” value was “strong effects in suppressing HIV propagation”. Further, the “amount of HIVp24” value with HIV (MT-4 cells, SRPIN-1 0.5, 10, or 20 μM) is “decreased in an SRPIN-1 concentration-dependent manner”. In addition, the “morphological changes and cell death caused by cytomegalovirus infection” value in the data set with Cytomegalovirus (20 μM, seven days after infection) was “neither abnormal morphological changes nor cell death were detectable”. The “morphological changes induced by the compound” value in the data set with Cytomegalovirus (40 μM) is listed as “Partial morphological changes thought to be induced by SRPIN-1 were detectable”. Moreover, the “inhibitory effect on PKC” value in the data set with PKC is “did not exhibit an inhibitory effect”.
Turning to `CC(C)C[C@@H](C=O)NC(=O)[C@H](CC(C)C)NC(=O)[C@H](CC(C)C)NC(=O)OCc1ccccc1` [MG132] (Cbz-Leu-Leu-Leu-aldehyde), the “degradation of SR proteins (anti-HA signal)” value in the data set with SRp75, SRp55, and SRp40 is “inhibited degradation of SR75, SR55, and SR40 proteins”.
